Results on 19 compounds are retold here after patent US20250197403A1, “HETEROARYL COMPOUNDS FOR TREATMENT OF COMPLEMENT FACTOR D MEDIATED DISORDERS” (Achillion Pharmaceuticals, Inc., priority 2020, published 2025).

Chain of Human Factor D (P00746 26-253): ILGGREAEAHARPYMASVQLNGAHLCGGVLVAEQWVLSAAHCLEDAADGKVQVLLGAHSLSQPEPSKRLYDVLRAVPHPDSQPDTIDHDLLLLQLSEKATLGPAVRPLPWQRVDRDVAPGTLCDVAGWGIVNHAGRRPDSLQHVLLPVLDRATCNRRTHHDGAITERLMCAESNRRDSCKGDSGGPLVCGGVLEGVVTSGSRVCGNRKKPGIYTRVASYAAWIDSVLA

This test has as its target Human Factor D (Homo sapiens (Human), UniProt P00746). Kind of test: Human Factor D Assay. It counts as biochemical. The following applies: Human Factor D 80 nM, substrate Z-L-Lys-SBzl, assay according to Example 3. On the procedure:
The assay according to Example 3 was used to determine the IC50's of the compounds. Other standard factor D inhibition assays are also available.
Human Factor D (purified from human serum, Complement Technology, Inc.) at 80 nM final concentration is incubated with test compound at various concentrations for 5 min at room temperature in 50 mM Tris, 1M NaCl, pH 7.5. A synthetic substrate Z-L-Lys-SBzl and DTNB (Ellman's reagent) are added to final concentrations of 100 μM each. Absorbance at 405 nm (A405) is recorded at 30 second intervals for 30 min using a microplate spectrophotometer. IC50 values are calculated by nonlinear regression of complement Factor D reaction rates as a function of test compound concentration.
A word on the IC50: it is the concentration that gives 50% inhibition. Read a high IC50 as weaker potency. The compound `CC(=O)c1cn(CC(=O)N2C[C@@](F)(CF)C[C@H]2C(=O)Nc2nc(C(F)(F)F)ccc2C)c2c(C)cc(-c3cnc4cc(C)nn4c3)cc12` [Compound 10, (2S,4R)-1-(2-(3-acetyl-7-methyl-5-(2-methylpyr-azolo[1,5-a]pyrimidin-6-yl)-1H-indol-1-yl)acetyl)-4-fluoro-4-(fluoromethyl)-N-(3-methyl-6-(trifluoro-methyl)pyridin-2-yl)pyr-rolidine-2-carboxamide] registered a half-maximal inhibitory concentration (IC50) below 1 µM.

The compound `CC(=O)c1nn(CC(=O)N2[C@H](C(=O)Nc3nc(Br)c(F)cc3C)C[C@@]3(C)C[C@@H]23)c2c(C)cc(-c3cnc([C@H](C)O)nc3)cc12` [Compound 17, (1R,3S,5R)-2-(2-(3-acetyl-5-(2-((S)-1-hydroxyethyl)-pyrimidin-5-yl)-7-methyl-1H-indazol-1-yl)acetyl)-N-(6-bromo-5-fluoro-3-meth-ylpyridin-2-yl)-5-methyl-2-azabicyclo[3.1.0]hexane-3-carboxamide] gave an IC50 below 1 µM.

Turning to `CC(=O)c1cn(CC(=O)N2C[C@@](F)(CF)C[C@H]2C(=O)Nc2nc(C(F)(F)F)ccc2C)c2c(C)cc(-c3ccc4nc(C)nn4c3)cc12` [Compound 11, (2S,4R)-1-(2-(3-acetyl-7-methyl-5-(2-methyl-[1,2,4]triazolo[1,5-a]pyr-idin-6-yl)-1H-indol-1-yl)-acetyl)-4-fluoro-4-(fluoro-methyl)-N-(3-methyl-6-(trifluoromethyl)pyridin-2-yl)pyrrolidine-2-carbox-amide], the concentration for half-maximal inhibition (IC50) is below 1 µM.

Compound `COCc1ccc(C(F)(F)F)nc1NC(=O)[C@@H]1C[C@@]2(C)C[C@H]2N1C(=O)Cn1cc(C(C)=O)c2cc(-c3cnc4cc(C)nn4c3)cc(C)c21` [Compound 53, (1R,3S,5R)-2-(2-(3-acetyl-7-methyl-5-(2-methylpyr-azolo[1,5-a]pyrimidin-6-yl)-1H-indol-1-yl)acetyl)-N-(3-(methoxymethyl)-6-(trifluoromethyl)pyridin-2-yl)-5-methyl-2-azabicyclo [3.1.0]hexane-3-carbox-amide] came in with a 50% inhibitory concentration (IC50) below 1 µM.

In turn, `CC(=O)c1cn(CC(=O)N2[C@H](C(=O)Nc3nc(C(F)(F)F)cnc3C)C[C@@]3(C)C[C@@H]23)c2c(C)cc(-c3cnc4cc(C)nn4c3)cc12` [Compound 60, (1R,3S,5R)-2-(2-(3-acetyl-7-methyl-5-(2-methylpyr-azolo[1,5-a]pyrimidin-6-yl)-1H-indol-1-yl)acetyl)-5-methyl-N-(3-methyl-6-(trifluoromethyl)pyrazin-2-yl)-2-azabicyclo[3.1.0] hexane-3-carboxamide] came in with a 50% inhibitory concentration (IC50) below 1 µM.

Compound `CC(=O)c1nn(CC(=O)N(C)[C@@H](C)C(=O)Nc2nc(Br)ccc2C)c2cc3c(cc12)-c1cnc(C)nc1CC=C3` [Compound 109, (S)-2-(2-(11-acetyl-3-methylpyrimido[4′,5′:6,7]cyclohepta[1,2-f]indazol-9(5H)-yl)-N-methylacetamido)-N-(6-bromo-3-methylpyridin-2-yl)propanamide] gave an IC50 below 1 µM.

In the case of `CC(=O)c1cn(CC(=O)N2C[C@H](F)C[C@H]2C(=O)Nc2ccn(CC(F)(F)F)n2)c2c(C)cc(-c3cnc4cc(C)nn4c3)cc12` [Compound 66, (2S,4R)-1-(2-(3-acetyl-7-methyl-5-(2-methylpyr-azolo[1,5-a]pyrimidin-6-yl)-1H-indol-1-yl)acetyl)-4-fluoro-N-(1-(2,2,2-tri-fluoroethyl)-1H-pyrazol-3-yl)pyrrolidine-2-carbox-amide], the IC50 was below 1 µM.

`CC(=O)c1cn(CC(=O)N2[C@H](C(=O)Nc3nc(C(F)(F)F)cnc3C)C[C@@]3(C)C[C@@H]23)c2c(C)cc(-c3cnc(C)nc3)cc12` [Compound 59, (1R,3S,5R)-2-(2-(3-acetyl-7-methyl-5-(2-methylpyr-imidin-5-yl)-1H-indol-1-yl)acetyl)-5-methyl-N-(3-methyl-6-(trifluorometh-yl)pyrazin-2-yl)-2-azabi-cyclo[3.1.0]hexane-3-car-boxamide] displayed a half-maximal inhibitory concentration (IC50) of 1 to 10 µM.

`CC(=O)c1cn(CC(=O)N2[C@H](C(=O)Nc3nc(C(F)(F)F)ccc3C)C[C@@]3(C)C[C@@H]23)c2c(C)nc(-c3ccc4nc(C)nn4c3)cc12` [Compound 56, (1R,3S,5R)-2-(2-(3-acetyl-7-methyl-5-(2-methyl-[1,2,4]triazolo[1,5-a]pyr-idin-6-yl)-1H-pyrrolo[2,3-c]pyridin-1-yl)acetyl)-5-methyl-N-(3-methyl-6-(trifluoromethyl)pyridin-2-yl)-2-azabicyclo[3.1.0] hexane-3-carboxamide] gave an IC50 below 1 µM.

With `COCc1ccc(C(F)(F)F)nc1NC(=O)[C@@H]1[C@@H]2C[C@@H]2CN1C(=O)Cn1cc(C(C)=O)c2cc(-c3cnc4cc(C)nn4c3)cc(C)c21` [Compound 7, (1R,2S,5S)-3-(2-(3-acetyl-7-methyl-5-(2-methylpyr-azolo[1,5-a]pyrimidin-6-yl)-1H-indol-1-yl)acetyl)-N-(3-(methoxymethyl)-6-(trifluoromethyl)pyridin-2-yl)-3-azabicyclo[3.1.0] hexane-2-carboxamide], the IC50 is below 1 µM.

The compound `CC(=O)c1nn(CC(=O)N2[C@H](C(=O)Nc3nc(Br)ccc3C)C[C@@]3(C)C[C@@H]23)c2cc3c(cc12)-c1cnc(C)nc1C=CC3` [Compound 69, (1R,3S,5R)-2-(2-(11-acet-yl-3-methylpyrimido [4′,5′:6,7]cyclohepta[1,2-f]indazol-9(7H)-yl)acetyl)-N-(6-bromo-3-methylpyr-idin-2-yl)-5-methyl-2-aza-bicyclo[3.1.0]hexane-3-carboxamide] gave a concentration for half-maximal inhibition (IC50) below 1 µM.

In the case of `CC(=O)c1cn(CC(=O)N2[C@H](C(=O)N[C@H](C)C(F)=C(C)C)C[C@@]3(C)C[C@@H]23)c2c(C)cc(-c3cnc4cc(C)nn4c3)cc12` [Compound 27, (1R,3S,5R)-2-(2-(3-acetyl-7-methyl-5-(2-methylpyr-azolo[1,5-a]pyrimidin-6-yl)-1H-indol-1-yl)acetyl)-N-((R)-3-fluoro-4-methyl-pent-3-en-2-yl)-5-methyl-2-azabicyclo[3.1.0]hexane-3-carboxamide], the 50% inhibitory concentration (IC50) is below 1 µM.

With `CC(=O)c1cn(CC(=O)N2[C@H](C(=O)N[C@H](C)C(F)=C(C)C)C[C@@]3(C)C[C@@H]23)c2c(C)nc(-c3cnc(C)nc3)cc12` [Compound 36, (1R,3S,5R)-2-(2-(3-acetyl-7-methyl-5-(2-methylpyr-imidin-5-yl)-1H-pyrrolo [2,3-c]pyridin-1-yl)acetyl)-N-((R)-3-fluoro-4-methyl-pent-3-en-2-yl)-5-methyl-2-azabicyclo[3.1.0]hexane-3-carboxamide], the concentration for half-maximal inhibition (IC50) was below 1 µM.

With `CC(=O)c1cn(CC(=O)N2[C@H](C(=O)Nc3nc(Br)cc(F)c3C)C[C@@]3(C)C[C@@H]23)c2c(C)cc(-c3cnc(C)nc3)cc12` [Compound 15, (1R,3S,5R)-2-(2-(3-acetyl-7-methyl-5-(2-methylpyr-imidin-5-yl)-1H-indol-1-yl)acetyl)-N-(6-bromo-4-fluoro-3-methylpyridin-2-yl)-5-methyl-2-azabicyclo [3.1.0]hexane-3-carbox-amide], the 50% inhibitory concentration (IC50) is below 1 µM.

Compound `CC(=O)c1cn(CC(=O)N2C[C@@](F)(CF)C[C@H]2C(=O)Nc2nc(C(F)(F)F)ccc2C)c2c(C)cc(-c3cnc(C)nc3)cc12` [Compound 61, (2S,4R)-1-(2-(3-acetyl-7-methyl-5-(2-methylpyrim-idin-5-yl)-1H-indol-1-yl)-acetyl)-4-fluoro-4-(fluoro-methyl)-N-(3-methyl-6-(trifluoromethyl)pyridin-2-yl)pyrrolidine-2-carbox-amide] showed a half-maximal inhibitory concentration (IC50) below 1 µM.

On to `CC(=O)c1cn(CC(=O)N2[C@H](C(=O)Nc3nc(C(F)(F)F)ccc3Cl)C[C@@]3(C)C[C@@H]23)c2c(C)nc(-c3cnc(C)nc3)cc12` [Compound 42, (1R,3S,5R)-2-(2-(3-acetyl-7-methyl-5-(2-methylpyr-imidin-5-yl)-1H-pyrrolo [2,3-c]pyridin-1-yl)acetyl)-N-(3-chloro-6-(trifluoro-methyl)pyridin-2-yl)-5-methyl-2-azabicyclo[3.1.0] hexane-3-carboxamide], for which the concentration for half-maximal inhibition (IC50) is below 1 µM.

For the compound `CC(=O)c1cn(CC(=O)N2[C@H](C(=O)Nc3nc(Br)ccc3Cl)C[C@@]3(C)C[C@@H]23)c2c(C)nc(-c3cnc(C)nc3)cc12` [Compound 21, (1R,3S,5R)-2-(2-(3-acetyl-7-methyl-5-(2-methylpyr-imidin-5-yl)-1H-pyrrolo [2,3-c]pyridin-1-yl)acetyl)-N-(6-bromo-3-chloropyr-idin-2-yl)-5-methyl-2-aza-bicyclo[3.1.0]hexane-3-carboxamide], the IC50 was below 1 µM.

As for `CC(=O)c1cn(CC(=O)N2[C@H](C(=O)Nc3nc(C(F)(F)F)ccc3C)C[C@@]3(C)C[C@@H]23)c2c(C)cc(-c3cnc4cc(C#N)nn4c3)cc12` [Compound 13, (1R,3S,5R)-2-(2-(3-acetyl-5-(2-cyanopyrazolo[1,5-a]pyrimidin-6-yl)-7-methyl-1H-indol-1-yl)acetyl)-5-methyl-N-(3-methyl-6-(trifluoromethyl)pyridin-2-yl)-2-azabicyclo[3.1.0] hexane-3-carboxamide], the IC50 was below 1 µM.

`COCc1ccc(C(F)(F)F)nc1NC(=O)[C@@H]1C[C@@]2(C)C[C@H]2N1C(=O)Cn1cc(C(C)=O)c2cc(-c3ccc4nc(C)nn4c3)cc(C)c21` [Compound 40, (1R,3S,5R)-2-(2-(3-acetyl-7-methyl-5-(2-methyl-[1,2,4]triazolo[1,5-a]pyr-idin-6-yl)-1H-indol-1-yl)-acetyl)-N-(3-(methoxy-methyl)-6-(trifluorometh-yl)pyridin-2-yl)-5-methyl-2-azabicyclo[3.1.0]hexane-3-carboxamide] came in with a half-maximal inhibitory concentration (IC50) below 1 µM.
